Columns and labels:
[1] = target: T1, Alcaligenes denitrificans subsp. xylosoxydans MI-4 D-aminoacylase mutant 3AD-0089 (A154V/M347A/R374F of SEQ ID NO: 1) (Alcaligenes xylosoxydans xylosoxydans, UniProt P72349, A154V/M347A/R374F); assay: Inhibition/kinetics test of purified mutant D-aminoacylase 3AD-0089; format: biochemical
T1 construct: made in house; host or cells: E. coli
Description: (§1) The enzyme reaction can be achieved by incubating 1.0 ml of a reaction solution containing 20 mM N-acetyl-D-tryptophan (Sigma), 50 mM Tris-hydrochloride buffer (pH 7.5), and an enzyme solution at 30° C. for 10 minutes. Then, the reaction is stopped by adding 0.5 ml of a stop solution containing TCA (comprising 0.11 M trichloroacetic acid, 0.22 M sodium acetate, and 0.33 M acetic acid). The amount of D-tryptophan produced can be determined by TNBS method (Biosci. Biotech. Biochem., 58, 24 (1994)).
(§2) For example, 0.25 ml of 100 mM Na2B4O7 is added to 0.25 ml of the stop solution, 10 μl of 110 mM TNBS (trinitrobenzenesulfonic acid) solution is added to the mixed solution, and immediately thereafter, the resulting mixture is stirred. After the mixture is allowed to stand for five minutes, 1 ml of 100 mM NaHPO4 containing 1.5 mM Na2SO3 is added to the mixture to stop the color reaction. Then, the absorbance of the solution is determined at 420 nm. One unit of the enzyme activity is defined as the amount of enzyme that catalyzes the production of 1 μmol of D-tryptophan at 30° C. for one minute.
(§3) The rate constants of the reaction with N-acetyl-D-tryptophan and N-acetyl-L-tryptophan that is catalyzed by the thus-purified wild-type derived from Alcaligenes denitrificans subsp. xylosoxydans MI-4 or mutant D-aminoacylases of the present invention, can be determined according to the methods described in “Lectures for Biochemical Experiments 21: Introduction to Experimental Approach to Enzyme Kinetics” and “Basic Experimental Methods for Proteins and Enzymes, 2nd Ed.” Michaelis constant is represented by Km; the maximal rate is Vmax; inhibition constant is Ki; the constant for reaction inhibition by excess substrate is Ks′.
(§4) The mutant D-aminoacylase 3AD-0089 was purified from an E. coli transformant having the plasmid pSL-AD10 that contains DNA encoding the mutant D-aminoacylase 3AD-0089 by the same method as described in Example 19.
(§5) The D-aminoacylases purified in Examples 20 to 23 were tested for the inhibition by N-acetyl-D-tryptophan and N-acetyl-L-tryptophan. The reaction rate constants for N-acetyl-D-tryptophan and N-acetyl-L-tryptophan were determined according to the methods described in “Lectures for Biochemical Experiments 21: Introduction to Experimental Approach to Enzyme Kinetics” and “Basic Experimental Methods for Proteins and Enzymes, 2nd Ed.” Michaelis constant is represented by Km; the maximal rate is Vmax; inhibition constant is Ki; the constant for reaction inhibition by excess substrate is represented by Ks′. Km and Vmax were determined from a Lineweaver-Burk reciprocal plot; Ki was determined from a second-order plot (Royer); and Ks′ was determined from a [S] −1/v plot.

[2] = target: T2, Alcaligenes denitrificans subsp. xylosoxydans MI-4 D-aminoacylase mutant A154-0043 (A154V of SEQ ID NO: 1) (Alcaligenes xylosoxydans xylosoxydans, UniProt P72349, A154V); assay: Inhibition/kinetics test of purified mutant D-aminoacylase A154-0043; format: biochemical
T2 construct: made in house; host or cells: E. coli
Description: as §1, §2, §3
(§6) The mutant D-aminoacylase A154-0043 was purified from an E. coli transformant having the plasmid pSL-AD07 that contains DNA encoding the mutant D-aminoacylase A154-0043 by the same method as described in Example 19.
as §5

[3] = target: T3, Alcaligenes denitrificans subsp. xylosoxydans MI-4 D-aminoacylase mutant M347-0133 (M347A of SEQ ID NO: 1) (Alcaligenes xylosoxydans xylosoxydans, UniProt P72349, M347A); assay: Inhibition/kinetics test of purified mutant D-aminoacylase M347-0133; format: biochemical
T3 construct: made in house; host or cells: E. coli
Description: as §1, §2, §3
(§7) The mutant D-aminoacylase M347-0133 was purified from an E. coli transformant having the plasmid pSL-AD08 that contains DNA encoding the mutant D-aminoacylase M347-0133 by the same method as described in Example 19.
as §5

[4] = target: T4, Alcaligenes denitrificans subsp. xylosoxydans MI-4 D-aminoacylase mutant R374-0017 (R374F of SEQ ID NO: 1) (Alcaligenes xylosoxydans xylosoxydans, UniProt P72349, R374F); assay: Inhibition/kinetics test of purified mutant D-aminoacylase R374-0017; format: biochemical
T4 construct: made in house; host or cells: E. coli
Description: as §1, §2, §3
(§8) The mutant D-aminoacylase R374-0017 was purified from an E. coli transformant having the plasmid pSL-AD09 that contains DNA encoding the mutant D-aminoacylase R374-0017 by the same method as described in Example 19.
as §5

[5] = system: Methylobacterium mesophilicum D-aminoacylase; conditions: at concentrations as high as 100 g/l; cited from earlier work
[6] = system: Nocardioides thermolilacinus D-aminoacylase; conditions: at concentrations as high as 100 g/l; cited from earlier work
[7] = target: Alcaligenes denitrificans subsp. xylosoxydans MI-4 D-aminoacylase, wild-type, SEQ ID NO: 1 (Alcaligenes xylosoxydans xylosoxydans, UniProt P72349); assay: Inhibition/kinetics test of purified wild-type D-aminoacylase
[8] = system: CC(=O)N[C@H](Cc1c[nH]c2ccccc12)C(=O)O; assay: Inhibition/kinetics test of purified mutant D-aminoacylase 3AD-0089; format: biochemical, Alcaligenes denitrificans subsp. xylosoxydans MI-4; conditions: other: 30° C., pH7.5, for N-acetyl-D-tryptophan, pH 7.5
Description: as §1, §2, §3, §4, §5

[9] = system: CC(=O)N[C@H](Cc1c[nH]c2ccccc12)C(=O)O; assay: Inhibition/kinetics test of purified mutant D-aminoacylase A154-0043; format: biochemical, Alcaligenes denitrificans subsp. xylosoxydans MI-4; conditions: other: 30° C., pH7.5, for N-acetyl-D-tryptophan, pH 7.5
Description: as §1, §2, §3, §6, §5

[10] = system: CC(=O)N[C@H](Cc1c[nH]c2ccccc12)C(=O)O; assay: Inhibition/kinetics test of purified mutant D-aminoacylase M347-0133; format: biochemical, Alcaligenes denitrificans subsp. xylosoxydans MI-4; conditions: other: 30° C., pH7.5, for N-acetyl-D-tryptophan, pH 7.5
Description: as §1, §2, §3, §7, §5

[11] = system: CC(=O)N[C@H](Cc1c[nH]c2ccccc12)C(=O)O; assay: Inhibition/kinetics test of purified mutant D-aminoacylase R374-0017; format: biochemical, Alcaligenes denitrificans subsp. xylosoxydans MI-4; conditions: other: 30° C., pH7.5, for N-acetyl-D-tryptophan, pH 7.5
Description: as §1, §2, §3, §8, §5

[12] = system: CC(=O)N[C@H](Cc1c[nH]c2ccccc12)C(=O)O; assay: purified protein, by the assay type; conditions: other: 30° C., pH7.5, for N-acetyl-D-tryptophan, pH 7.5
[13] = D-aminoacylase activity assay (20 mM N-acetyl-D-tryptophan, TNBS method); format: biochemical; conditions: cell extract of E. coli JM109 transformant
Description: as §1, §2

[14] = 30° C., pH7.5, for N-acetyl-D-tryptophan
[15] = 30° C., pH7.5, substrate inhibition by N-acetyl-D-tryptophan

T1 sequence (P72349 whole entry A154V/M347A/R374F): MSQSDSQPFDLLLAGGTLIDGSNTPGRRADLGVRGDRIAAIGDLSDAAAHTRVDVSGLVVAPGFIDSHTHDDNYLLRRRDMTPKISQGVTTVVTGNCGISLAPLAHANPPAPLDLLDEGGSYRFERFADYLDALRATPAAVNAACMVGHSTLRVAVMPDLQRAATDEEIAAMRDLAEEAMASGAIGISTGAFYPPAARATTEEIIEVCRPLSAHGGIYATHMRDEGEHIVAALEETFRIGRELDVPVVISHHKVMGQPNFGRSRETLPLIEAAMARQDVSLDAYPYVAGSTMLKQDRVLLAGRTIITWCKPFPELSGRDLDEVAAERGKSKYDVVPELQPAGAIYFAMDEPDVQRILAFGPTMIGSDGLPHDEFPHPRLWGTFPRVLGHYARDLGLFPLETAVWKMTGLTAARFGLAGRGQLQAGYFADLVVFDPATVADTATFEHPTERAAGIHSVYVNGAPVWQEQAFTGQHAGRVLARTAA
T3 sequence (P72349 whole entry M347A): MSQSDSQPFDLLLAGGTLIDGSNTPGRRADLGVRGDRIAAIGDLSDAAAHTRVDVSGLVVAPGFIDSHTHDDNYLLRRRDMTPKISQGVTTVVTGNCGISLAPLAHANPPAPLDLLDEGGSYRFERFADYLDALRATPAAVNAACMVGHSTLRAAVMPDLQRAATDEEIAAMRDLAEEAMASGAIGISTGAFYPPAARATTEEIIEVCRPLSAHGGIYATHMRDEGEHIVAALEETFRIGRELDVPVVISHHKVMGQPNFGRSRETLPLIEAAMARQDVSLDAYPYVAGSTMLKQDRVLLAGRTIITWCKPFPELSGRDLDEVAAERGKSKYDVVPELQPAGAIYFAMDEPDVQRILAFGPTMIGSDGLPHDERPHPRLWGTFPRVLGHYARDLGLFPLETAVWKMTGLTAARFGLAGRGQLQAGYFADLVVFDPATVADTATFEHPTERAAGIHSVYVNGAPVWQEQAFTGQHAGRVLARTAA
T2 sequence (P72349 whole entry A154V): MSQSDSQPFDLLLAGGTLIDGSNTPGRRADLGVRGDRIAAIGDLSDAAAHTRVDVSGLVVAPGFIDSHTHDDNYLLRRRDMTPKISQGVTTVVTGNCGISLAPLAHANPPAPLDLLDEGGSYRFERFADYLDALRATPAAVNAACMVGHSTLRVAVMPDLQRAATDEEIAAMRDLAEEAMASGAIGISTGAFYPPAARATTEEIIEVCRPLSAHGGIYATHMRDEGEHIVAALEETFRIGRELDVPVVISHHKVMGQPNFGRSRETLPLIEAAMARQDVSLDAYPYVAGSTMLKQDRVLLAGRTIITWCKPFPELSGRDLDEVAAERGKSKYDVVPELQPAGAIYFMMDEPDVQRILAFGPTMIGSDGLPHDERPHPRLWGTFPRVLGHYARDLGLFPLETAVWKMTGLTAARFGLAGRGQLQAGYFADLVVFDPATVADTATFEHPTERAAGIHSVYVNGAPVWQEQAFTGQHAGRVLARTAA
T4 sequence (P72349 whole entry R374F): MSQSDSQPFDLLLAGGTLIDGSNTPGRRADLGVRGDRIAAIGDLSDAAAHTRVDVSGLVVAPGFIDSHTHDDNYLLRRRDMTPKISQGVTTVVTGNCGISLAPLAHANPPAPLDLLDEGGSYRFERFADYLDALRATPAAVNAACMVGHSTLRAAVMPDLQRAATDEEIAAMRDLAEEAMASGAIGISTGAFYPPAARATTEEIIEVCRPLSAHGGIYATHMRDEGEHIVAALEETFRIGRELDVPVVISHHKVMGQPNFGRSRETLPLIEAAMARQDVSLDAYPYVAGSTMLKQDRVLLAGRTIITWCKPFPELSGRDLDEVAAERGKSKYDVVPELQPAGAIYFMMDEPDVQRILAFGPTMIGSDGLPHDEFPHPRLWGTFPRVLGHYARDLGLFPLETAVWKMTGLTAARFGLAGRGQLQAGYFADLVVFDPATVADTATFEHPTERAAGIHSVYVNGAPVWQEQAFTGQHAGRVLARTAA

Molecule: CC(=O)N[C@H](Cc1c[nH]c2ccccc12)C(=O)O [N-acetyl-D-tryptophan]
- Vmax (Lineweaver-Burk reciprocal plot) [1, 14]: 357
- substrate inhibition ([1]; in the presence of 99 mM N-acetyl-D-tryptophan): not detectable
- Vmax (Lineweaver-Burk reciprocal plot) [2, 14]: 1031
- Ks′ (constant for reaction inhibition by excess substrate; [S]−1/v plot) [2, 15]: 13.67
- Vmax (Lineweaver-Burk reciprocal plot) [3, 14]: 1000
- Ks′ (constant for reaction inhibition by excess substrate; [S]−1/v plot) [3, 15]: 77.00
- Vmax (Lineweaver-Burk reciprocal plot) [4, 14]: 1000
- Ks′ (constant for reaction inhibition by excess substrate; [S]−1/v plot) [4, 15]: 93.00
- inhibition by the substrate [5]: hardly inhibited
- inhibition by the substrate [6]: hardly inhibited
- Vmax (Lineweaver-Burk reciprocal plot) [7, 14]: 685
- Ks′ (constant for reaction inhibition by excess substrate; [S]−1/v plot) [7, 15]: 1.29

Molecule: CC(=O)N[C@@H](Cc1c[nH]c2ccccc12)C(=O)O [N-acetyl-L-tryptophan]
- competitive inhibition ([1]; in the presence of 89 mM N-acetyl-L-tryptophan): not detectable
- Ki [2]: 6.4 mM
- Ki [3]: 12.3 mM
- Ki [4]: 7.46 mM
- Ki [7]: 2.6 mM

Molecule: Alcaligenes denitrificans subsp. xylosoxydans MI-4 D-aminoacylase mutant 3AD-0089 (A154V/M347A/R374F of SEQ ID NO: 1) (Achromobacter xylosoxidans; A154V/M347A/R374F)
- Km [8]: 1460 µM

Molecule: Alcaligenes denitrificans subsp. xylosoxydans MI-4 D-aminoacylase mutant A154-0043 (A154V of SEQ ID NO: 1) (Achromobacter xylosoxidans; A154V)
- Km [9]: 3440 µM

Molecule: Alcaligenes denitrificans subsp. xylosoxydans MI-4 D-aminoacylase mutant M347-0133 (M347A of SEQ ID NO: 1) (Achromobacter xylosoxidans; M347A)
- Km [10]: 1420 µM

Molecule: Alcaligenes denitrificans subsp. xylosoxydans MI-4 D-aminoacylase mutant R374-0017 (R374F of SEQ ID NO: 1) (Achromobacter xylosoxidans; R374F)
- Km [11]: 1940 µM

Molecule: Alcaligenes denitrificans subsp. xylosoxydans MI-4 D-aminoacylase, wild-type, SEQ ID NO: 1 (Achromobacter xylosoxidans)
- Km [12]: 2530 µM

B1: D-aminoacylase produced with the modified D-aminoacylase gene: wild-type amino acid sequence (SEQ ID NO: 1) expressed from codon-modified gene SEQ ID NO: 3 in plasmid pSL-ADD6 (protein)
chain: MSQSDSQPFDLLLAGGTLIDGSNTPGRRADLGVRGDRIAAIGDLSDAAAHTRVDVSGLVVAPGFIDSHTHDDNYLLRRRDMTPKISQGVTTVVTGNCGISLAPLAHANPPAPLDLLDEGGSYRFERFADYLDALRATPAAVNAACMVGHSTLRAAVMPDLQRAATDEEIAAMRDLAEEAMASGAIGISTGAFYPPAARATTEEIIEVCRPLSAHGGIYATHMRDEGEHIVAALEETFRIGRELDVPVVISHHKVMGQPNFGRSRETLPLIEAAMARQDVSLDAYPYVAGSTMLKQDRVLLAGRTIITWCKPFPELSGRDLDEVAAERGKSKYDVVPELQPAGAIYFMMDEPDVQRILAFGPTMIGSDGLPHDERPHPRLWGTFPRVLGHYARDLGLFPLETAVWKMTGLTAARFGLAGRGQLQAGYFADLVVFDPATVADTATFEHPTERAAGIHSVYVNGAPVWQEQAFTGQHAGRVLARTAA
modifications: Alcaligenes denitrificans subsp. xylosoxydans MI-4
- D-aminoacylase activity of cell extract [13]: 86 U/mg

From US7282356B2, “D-aminoacylase mutants” (Daicel Chemical Industries, Ltd., priority 2002, dated 2007)
